Assay results published in US20060052248A1, “Use of a substance with oxytocin activity in order to stimulate plant growth” (priority 2001, published 2006).

Tests used:
Type in all cases: in vivo
[1] = test system: winter wheat (Triticum sativum); experiment: Germination test, winter wheat seeds
Protocol: (§1) Statistical analysis was performed by means of 2-way ANOVA followed by Bonferoni's test for post hoc comparison. Results are given as mean values. Differences in the number of germinated seeds, coleoptile length, root length (Example 1) and growth of lettuce (Example 2) were assessed by Student's t-test for independent means. Results were considered significant when p<0.05. In each of 10 Petri dishes with a diameter of 10 cm, 100 seeds of winter wheat (Triticum sativum) are placed together with two filter papers. To five of the Petri dishes is added 4.5 ml of a 1 μg/ml aqueous solution of oxytocin. To the other five Petri dishes is added the same amount of tap water. All ten Petri dishes are placed in darkness for germination during fourteen days at a temperature of 18° C.

[2] = test system: bent (Agrostis tenuis); experiment: Germination test, bent seeds
Protocol: as §1, with “seeds of bent (Agrostis tenuis) are placed” for “seeds of winter wheat (Triticum sativum) are placed”, “dishes are then placed in” for “dishes are placed in”

[3] = test system: lettuce (Lactuca sativa), sort "Calgary"; experiment: Growth test, lettuce in nutrient solution; conditions: for Root, dm / Shoot, dm: dry weight/fresh weight; for Root length / Root, dw / Root, fw / Shoot, dw / Shoot, fw / Whole plant, dw / Whole plant, fw: harvest 21 days; for Shoot/root, dw / Shoot/root, fw: ratio
Protocol: Statistical analysis was performed by means of 2-way ANOVA followed by Bonferoni's test for post hoc comparison. Results are given as mean values. Differences in the number of germinated seeds, coleoptile length, root length (Example 1) and growth of lettuce (Example 2) were assessed by Student's t-test for independent means. Results were considered significant when p<0.05.
The plant used was lettuce (Lactuca sativa), sort “Calgary” and non-disinfected ecological seeds were used. In the same manner as in Example 1, 150 seeds are germinated in oxytocin solution and 150 seeds are germinated in tap water, in both cases in darkness.
After germination for six days, the germs are put into 1 litre test vessels with four germs per vessel. To ten vessels are added oxytocin treated germs and to ten other vessels are added germs treated with tap water, giving totally eighty plants. Each vessel contains 1 litre 300 μM calcium sulphate solution. Other nutrients were added on the first and third day and from day five until harvest, 21 days after transferring germs to vessels. Increasing volumes from a stock nutrient solution (24 mM potassium, 2.5 mM magnesium, 22.3 mM ammonium, 4 mM phosphorus, 46.9 mM nitrate, 1 mM chlorine and trace elements) were supplied to meet the immediate nutrient demand of plants with a relative growth rate of 20% day^−1. Three days after the transport of the germs to the vessels, 1 mg of oxytocin was added to half of the oxytocin treated germs and to half of the germs treated with tap water giving a oxytocin concentration of 1 μg/ml. The growth phase experiment was performed in a climate chamber with 14 hours illumination per day at a temperature of 18° C. at light and at a temperature of 14° C. in darkness.
Accordingly, the eighty plants have been treated as follows:
20 plants (5 vessels each having 4 plants)—treated with tap water during germination and growth (denoted −ox/−ox);
20 plants (5 vessels each having 4 plants)—treated with oxytocin solution during germination and with tap water during growth (denoted +ox/−ox);
20 plants (5 vessels each having 4 plants)—treated with tap water during germination and with oxytocin solution during growth (denoted −ox/+ox);
20 plants (5 vessels each having 4 plants)—treated with oxytocin solution during germination and growth (denoted +ox/+ox).

[4] = 1 μg/ml aqueous oxytocin, 14 days darkness, 18° C.
[5] = 100 seeds per dish, 1 μg/ml aqueous oxytocin, 14 days darkness, 18° C.
[6] = versus tap water, 1 μg/ml oxytocin
[7] = +ox/+ox: oxytocin during germination and growth
[8] = +ox/−ox: oxytocin during germination only
[9] = −ox/+ox: oxytocin 1 μg/ml during growth only

In the case of oxytocin, the Coleoptile length [1, 4] is reported as 27.4 mm, the Root length [1, 4] is reported as 36.0 mm and the “Germinated seeds (mean number)” value [1, 5] is reported as 97.0. The “Effect on germination and growth of seeds (in words)” value [1, 6] was “increased the number of germinated seeds and stimulated the growth of seeds”, the Coleoptile length [2, 4] was 39.1 mm and the Root length [2, 4] was 15.7 mm. The “Germinated seeds (mean number)” value [2, 5] was 9.8, the “Effect on germination and growth of seeds (in words)” value [2, 6] was “only the increase in root length was significant” and the “Root length compared with control (in words)” value ([3]; +ox/+ox: oxytocin available during the whole experiment period) was “inhibited”. For the same substance, the “Growth compared with control (−ox/−ox) (in words)” value (shortened to “Growth compared with control”) ([3]; +ox/+ox: oxytocin during both germination and growth) was “no effects compared with control”, the “Root, dm” value [3, 7] was 6.44b % and the “Shoot, dm” value [3, 7] was 13.34b %. For the same substance, the Root length [3, 7] was 21.00b cm, the “Root, dw” value [3, 7] was 0.126b g and the “Root, fw” value [3, 7] was 1.94ab g. The “Shoot, dw” value [3, 7] was 0.596b g, the “Shoot, fw” value [3, 7] was 4.466a g and the “Whole plant, dw” value [3, 7] was 0.721b g. For the same substance, the “Whole plant, fw” value [3, 7] was 6.41ab g, the “Shoot/root, dw” value [3, 7] was 4.76a and the “Shoot/root, fw” value [3, 7] was 2.30a. The “Growth compared with control” value ([3]; +ox/−ox: oxytocin at germination) was “significant increase in growth”, the “Root, dm” value [3, 8] was 7.03a % and the “Shoot, dm” value [3, 8] was 14.06ab %. For the same substance, the Root length [3, 8] was 24.4a cm, the “Root, dw” value [3, 8] was 0.141a g and the “Root, fw” value [3, 8] was 2.03a g. The “Shoot, dw” value [3, 8] was 0.641ab g, the “Shoot, fw” value [3, 8] was 4.559a g and the “Whole plant, dw” value [3, 8] was 0.782a g. The “Whole plant, fw” value [3, 8] was 6.59a g, the “Shoot/root, dw” value [3, 8] was 4.59a and the “Shoot/root, fw” value [3, 8] was 2.24a. For the same substance, the “Root, dm” value [3, 9] was 6.92ab %, the “Shoot, dm” value [3, 9] was 14.55a % and the Root length [3, 9] was 23.6a cm. The “Root, dw” value [3, 9] was 0.141a g, the “Root, fw” value [3, 9] was 2.00a g and the “Shoot, dw” value [3, 9] was 0.656a g. For the same substance, the “Shoot, fw” value [3, 9] was 4.508a g, the “Whole plant, dw” value [3, 9] was 0.797a g and the “Whole plant, fw” value [3, 9] was 6.51ab g. For the same substance, the “Shoot/root, dw” value [3, 9] was 4.67a, the “Shoot/root, fw” value [3, 9] was 2.25a and the “Growth compared with control” value ([3]; −ox/+ox: oxytocin during growth in nutrient solution) was “significant increase in growth”.
